The values that follow are results of earlier work, collected in EP3572069A1, “INCREASING SOLUBILITY AND BIOAVAILABILITY OF ENZALUTAMIDE” (Zentiva K.S., priority 2018, dated 2019).

The conditions of data set [1]: background statement, no test described.
For data set [2] the following is noted: not told.

As for `CNC(=O)c1ccc(N2C(=S)N(c3ccc(C#N)c(C(F)(F)F)c3)C(=O)C2(C)C)cc1F` [Amorphous form of enzalutamide, 4-(3-(4-cyano-3-(trifluoromethyl)phenyl)-5,5-dimethyl-4-oxo-2-thioxo-1-imidazolidinyl)-2-fluoro-N-methyl-benzamide], the Solubility entry in data set [1] is on record as “dissolves better”.
For `CNC(=O)c1ccc(N2C(=S)N(c3ccc(C#N)c(C(F)(F)F)c3)C(=O)C2(C)C)cc1F` [Crystalline enzalutamide, 4-(3-(4-cyano-3-(trifluoromethyl)phenyl)-5,5-dimethyl-4-oxo-2-thioxo-1-imidazolidinyl)-2-fluoro-N-methyl-benzamide], the Solubility entry in data set [1] is reported as “very poorly soluble”.
For the molecule `CNC(=O)c1ccc(N2C(=S)N(c3ccc(C#N)c(C(F)(F)F)c3)C(=O)C2(C)C)cc1F` [Enzalutamide, 4-(3-(4-cyano-3-(trifluoromethyl)phenyl)-5,5-dimethyl-4-oxo-2-thioxo-1-imidazolidinyl)-2-fluoro-N-methyl-benzamide], the Permeability entry in data set [2] is “high permeability”.
